Results published in patent US20240041884A1, “Pharmaceutical Combinations for Treating Cancer” (Cellestia Biotech AG, priority 2020, published 2024).

Columns and labels:
[1] = tested on: Primary human T cell acute lymphoblastic leukemia with activated NOTCH pathway; test: Efficacy in mice bearing primary human T-ALL, survival; format: in vivo; conditions: NSG mice; 6-(4-(tert-butyl)phenoxy)pyridin-3-amine 40 mg/kg QD5 until termination, Venetoclax 25 mg/kg QD for 7 days
Method: Efficacy of 6-(4-(tert-butyl)phenoxy)pyridin-3-amine+Venetoclax combination Primary human T cell acute lymphoblastic leukemia with activated NOTCH pathway were intravenously infused into NSG mice. After 7 days of disease establishment, leukemia-bearing mice were treated as below: • 1. Group 1: Vehicle treatment • 2. Group 2: 6-(4-(tert-butyl)phenoxy)pyridin-3-amine treatment at 40 mg/kg, QD5 until termination of the group • 3. Group 3: Venetoclax treatment at 25 mg/kg, QD for 7 days only • 4. Group 4: Venetoclax at 25 mg/kg , QD for first 7 days+6-(4-(tert-butyl)phenoxy)pyridin-3-amine at 40 mg/kg, QD5 until termination of the group.
Animals were monitored for survival on a daily basis.

blood cells = test: Safety evaluation in wildtype mice, whole blood analysis; format: in vivo; conditions: 4 consecutive days, day 5 bleed, Venetoclax 12.5, 25, 50 mg/kg, 6-(4-(tert-butyl)phenoxy)pyridin-3-amine 60 mg/kg
Method: Wildtype mice were weighed and dosed for 4 consecutive days as below: • 1. Group 1: Vehicle+Vehicle • 2. Group 2: Vehicle+12.5 mg/kg Venetoclax • 3. Group 3: Vehicle+25 mg/k Venetoclax • 4. Group 4: Vehicle+50 mg/kg Venetoclax • 5. […] On day 5, animals were tail vein bled and whole blood analysis was carried out to determine numbers of different cells.

MCF-7 cells = test: Single agent screening, alamarBlue proliferation assay; format: cell-based; conditions: Homo sapiens, MCF7, MCF-7, 72 hours, read-out: IC50 (μM) values of drugs used as single agent
Method: (§1) To determine effect of 6-(4-(tert-butyl)phenoxy)pyridin-3-amine with inhibitors of anti-apoptotic proteins, drugs listed in table 1 were used.
(§2) Cells were treated with each of the listed compounds in table 1 as single agent with a concentration ranging from 10 nM to 10 μM in duplicates. Following treatment for 72 hours, cells were incubated with alamarBlue® for 4 hours and cell proliferation readout was taken using Infinite® F500 (Tecan) plate reader. All volumes (cells and alamarBlue®) were dispensed using Multidrop Combi dispenser using a standard cassette (Speed MEDIUM).
(§3) AlamarBlue® viability assay: alamarBlue® proliferation assays were performed to determine the growth kinetics of compound treated cells. alamarBlue® consists of a cell permeable substrate resazurin. In metabolically active and proliferating cells, resazurin is converted to resorufin due to an intrinsic reducing power of live cells and produces a red fluorescence. Therefore, production of resorufin serves as an indicator of the viability of the cell population. Proliferation assays were performed by seeding 1500 cells/well in 384 well plate format. Cells were treated in duplicates with pre-determined concentration of compounds as a single agent or in combination with 6-(4-(tert-butyl)phenoxy)pyridin-3-amine for 72 hours. To determine growth kinetics, alamarBlue® (Invitrogen) was added to each well and incubated for 4 hours. alamarBlue® readout was taken using Infinite® F500 (Tecan) plate reader.
(§4) Data analysis for individual compounds: To determine anti-proliferative activity and IC50 values of individual compounds (listed in table 1) against HCC1187, MCF-7 and RPMI-8402 cells, data were analyzed using GraphPad Prism.

HCC1187 cells = test: as above; format: cell-based; conditions: Homo sapiens, HCC1187, 72 hours, read-out: IC50 (μM) values of drugs used as single agent
Method: as §1, §2, §3, §4

RPMI-8402 cells = test: as above; format: cell-based; conditions: Homo sapiens, RPMI-8402, 72 hours, read-out: IC50 (μM) values of drugs used as single agent
Method: as §1, §2, §3, §4

[2] = tested on: ACC PDX (human adenoid cystic carcinoma patient-derived xenograft); test: In vivo efficacy in ACC PDX model, tumor growth inhibition; conditions: ACC PDX in athymic nude mice; for Percentange tumor growth inhibition (TGI): 6-(4-(tert-butyl)phenoxy)pyridin-3-amine 60 mg/kg SC qdx5, Navitoclax 50 mg/kg PO qdx5; for effect on ACC PDX tumor growth: doses of table 5, compared to vehicle
Source text: In Vivo Efficacy Evaluation of 6-(4-(tert-butyl)phenoxy)pyridin-3-amine and BCL-2 inhibitor ABT-263 (Navitoclax) in a NOTCH! and BCL-2 Positive Patient-Derived Xenograft (ACC PDX) Model Representing Human Adenoid Cystic Carcinoma in Immune-Deficient Mice
ACC PDX model was implanted into Immuno deficient mice and upon reaching a tumor volume of 150-300 mm^3, animals were randomized for treatment with different agents as indicated below.
Athymic mice transplanted with ACC PDX model were randomized into 4 treatment cohorts. Vehicle treatment • 2. 6-(4-(tert-butyl)phenoxy)pyridin-3 -amine • 3. ABT-263 • 4. 6-(4-(tert-butyl)phenoxy)pyridin-3-amine+ABT-263
Tumor volume was measured every 3-4 days. Mean tumor volume and SEM was calculated and Tumor growth inhibition was calculated using the formula TGI=1−(TXFavg−TXiavg)/(Cfavg−Ciavg), where TX is drug treatment group, favg=average tumor volume at treatment end, iavg=average tumor volume upon treatment initiation, C=Vehile treatment group.

SMILES | Number of days by which 100% animals died due to leukemia [1] [days] | effect on blood cells (whole blood analysis) (blood cells) | IC50 (MCF-7 cells) [µM] | IC50 (HCC1187 cells) [µM] | IC50 (RPMI-8402 cells) [µM] | Percentange tumor growth inhibition (TGI) [2] [%] | effect on ACC PDX tumor growth [2]
CC1(C)CCC(CN2CCN(c3ccc(C(=O)NS(=O)(=O)c4ccc(NCC5CCOCC5)c([N+](=O)[O-])c4)c(Oc4cnc5[nH]ccc5c4)c3)CC2)=C(c2ccc(Cl)cc2)C1 [Venetoclax, 4-[4-[[2-(4-chlorophenyl)-4,4-dimethylcydohexen-1-yl]methyl]piperazin-1-yl]-N-[3-nitro-4-(oxan-4-ylmethylamino)phenyl]sulfonyl-2-(1H-pyrrolo[2,3-b]pyridin-5-yloxy)benzamide] | 28 | decrease of white blood cells, lymphocytes, neutrophils, monocytes and mean platelet mass |  |  |  |  | 
Cc1c(-c2c(-c3ccc(F)o3)sc3ncnc(O[C@H](Cc4ccccc4OCc4ccnn4CC(F)(F)F)C(=O)O)c23)ccc(OCCN2CCN(C)CC2)c1Cl (atropisomer, axis not shown) [S63845, (2R)-2-[5-[3-chloro-2-methyl-4-[2-(4-methylpiperazin-1-yl)ethoxy]phenyl]-6-(5-fluorofuran-2-yl)thieno[2,3-d]pyrimidin-4-yl]oxy-3-[2-[[2-(2,2,2-trifluoroethyl)pyrazol-3-yl]methoxy]phenyl]propanoic acid] |  |  | 0.37 | 0.24 | 0.04 |  | 
CC1(C)CCC(c2ccc(Cl)cc2)=C(CN2CCN(c3ccc(C(=O)NS(=O)(=O)c4ccc(N[C@H](CCN5CCOCC5)CSc5ccccc5)c(S(=O)(=O)C(F)(F)F)c4)cc3)CC2)C1 [ABT-263 (Navitoclax), 4-[4-[[2-(4-chlorophenyl)-5,5-dimethylcydohexen-1-yl]methyl]piperazin-1-yl]-N-[4-[[(2R)-4-morpholin-4-yl-1-phenylsulfonylbutan-2-yl]amino]-3-(trifluoromethylsulfonyl)phenyl]sulfonylbenzamide] |  |  | 21 | 20 | 5.5 | 57 | induces tumor growth retardation compared to vehicle treated group
CC(C)(C)c1ccc(Oc2ccc(N)cn2)cc1 [6-(4-(tert-butyl)phenoxy)pyridin-3-amine] | 30 |  |  |  |  | 37 | induces tumor growth retardation compared to vehicle treated group
